Patent US20050038074A1, “Mitotic kinesin inhibitors” (priority 2003, published 2005)
pIC50: −log10 of the molar value.

Each compound was assayed against T1, human KSP motor domain (KSP(367H)) (Homo sapiens, UniProt P52732) (assay: Kinesin ATPase In Vitro Assay). Settings: kinesin motor domain with microtubules, 1 mM ATP, 23° C.; free phosphate by quinaldine red/ammonium molybdate.
T1 construct: were used to amplify the motor domain and the neck linker region; made in house; host or cells: E. coli BL21 (DE3)
T1 sequence (P52732 18-359 limits assumed): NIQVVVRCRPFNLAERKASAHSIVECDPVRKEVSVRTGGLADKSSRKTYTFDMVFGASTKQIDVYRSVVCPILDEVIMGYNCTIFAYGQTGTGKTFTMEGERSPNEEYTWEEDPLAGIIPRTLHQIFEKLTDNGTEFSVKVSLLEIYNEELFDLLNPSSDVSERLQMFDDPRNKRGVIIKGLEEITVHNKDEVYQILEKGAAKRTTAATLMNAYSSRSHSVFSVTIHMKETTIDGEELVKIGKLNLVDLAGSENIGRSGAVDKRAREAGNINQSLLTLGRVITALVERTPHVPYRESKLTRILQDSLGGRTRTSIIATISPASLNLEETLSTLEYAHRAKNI
Type: biochemical
From the text: I. Kinesin ATPase In Vitro Assay
Cloning and Expression of Human Poly-Histidine Tagged KSP Motor Domain (KSP(367H))
Plasmids for the expression of the human KSP motor domain construct were cloned by PCR using a pBluescript full length human KSP construct (Blangy et al., Cell, vol.83, pp1159-1169, 1995) as a template. The N-terminal primer 5′-[…] (SEQ.ID.NO.: 1) and the C-terminal primer 5′-[…] […] (SEQ.ID.NO.: 2) were used to amplify the motor domain and the neck linker region. The PCR products were digested with AseI and XhoI, ligated into the NdeI/XhoI digestion product of pRSETa (Invitrogen) and transformed into E. coli BL21 (DE3).
Cells were grown at 37° C. to an OD600 of 0.5. After cooling the culture to room temperature expression of KSP was induced with 100 μM IPTG and incubation was continued overnight. Cells were pelleted by centrifugation and washed once with ice-cold PBS. Pellets were flash-frozen and stored −80° C.
Cell pellets were thawed on ice and resuspended in lysis buffer (50 mM K-HEPES, pH 8.0, 250 mM KCl, 0.1% Tween, 10 mM imidazole, 0.5 mM Mg-ATP, 1 mM PMSF, 2 mM benzimidine, 1× complete protease inhibitor cocktail (Roche)). Cell suspensions were incubated with 1 mg/ml lysozyme and 5 mM β-mercaptoethanol on ice for 10 minutes, followed by sonication (3×30 sec). All subsequent procedures were performed at 4° C. Lysates were centrifuged at 40,000×g for 40 minutes. Supernatants were diluted and loaded onto an SP Sepharose column (Pharmacia, 5 ml cartridge) in buffer A (50 mM K-HEPES, pH 6.8, 1 mM MgCl2, 1 mM EGTA, 10 μM Mg-ATP, 1 mM DTT) and eluted with a 0 to 750 mM KCl gradient in buffer A. Fractions containing KSP were pooled and incubated with Ni-NTA resin (Qiagen) for one hour. The resin was washed three times with buffer B (Lysis buffer minus PMSF and protease inhibitor cocktail), followed by three 15-minute incubations and washes with buffer B. Finally, the resin was incubated and washed for 15 minutes three times with buffer C (same as buffer B except for pH 6.0) and poured into a column. KSP was eluted with elution buffer (identical to buffer B except for 150 mM KCl and 250 mM imidazole). KSP-containing fractions were pooled, made 10% in sucrose, and stored at −80° C.
Microtubules are prepared from tubulin isolated from bovine brain. Purified tubulin (>97% MAP-free) at 1 mg/ml is polymerized at 37° C. in the presence of 10 JAM paclitaxel, 1 mM DTT, 1 mM GTP in BRB80 buffer (80 mM K-PIPES, 1 mM EGTA, 1 mM MgCl2 at pH 6.8). The resulting microtubules are separated from non-polymerized tubulin by ultracentrifugation and removal of the supernatant. The pellet, containing the microtubules, is gently resuspended in 10 μM paclitaxel, 1 mM DTT, 50 μg/ml ampicillin, and 5 μg/ml chloramphenicol in BRB80.
The kinesin motor domain is incubated with microtubules, 1 mM ATP (1:1 MgCl2: Na-ATP), and compound at 23° C. in buffer containing 80 mM K-HEPES (pH 7.0), 1 mM EGTA, 1 mM DTT, 1 mM MgCl2, and 50 mM KCl. The reaction is terminated by a 2-10 fold dilution with a final buffer composition of 80 mM HEPES and 50 mM EDTA. Free phosphate from the ATP hydrolysis reaction is measured via a quinaldine red/ammonium molybdate assay by adding 150 μl of quench C buffer containing a 2:1 ratio of quench A:quench B. Quench A contains 0.1 mg/mil quinaldine red and 0.14% polyvinyl alcohol; quench B contains 12.3 mM ammonium molybdate tetrahydrate in 1.15 M sulfuric acid. The reaction is incubated for 10 minutes at 23° C., and the absorbance of the phospho-molybdate complex is measured at 540 nm.

SMILES	pIC50
CN1CC[C@@H](N(C)C(=O)N2CC(c3cc(F)ccc3F)=C[C@H]2c2ccccc2)[C@@H](F)C1 [Compound 7-2, (2S)-4-(2,5-Difluorophenyl)-N-[(3S,4R)-3-fluoro-1-methylpiperidin-4-yl]-N-methyl-2-phenyl-2,5-dihydro-1H-pyrrole-1-carboxamide]	≥ 4.30
CN1CC[C@H](N(C)C(=O)N2CC(c3cc(F)ccc3F)=C[C@H]2c2ccccc2)[C@H](F)C1 [Compound 7-1, (2S)-4-(2,5-Difluorophenyl)-N-[(3R,4S)-3-fluoro-1-methylpiperidin-4-yl]-N-methyl-2-phenyl-2,5-dihydro-1H-pyrrole-1-carboxamide]	≥ 4.30
CC(C)N1CC[C@H](N(C)C(=O)N2CC(c3cc(F)ccc3F)=C[C@@]2(CO)c2ccccc2)[C@H](F)C1 [Compound 11-1, (2S)-4-(2,5-Difluorophenyl)-N-[(3R,4S)-3-fluoro-1-isopropylpiperidin-4-yl]-2-(hydroxymethyl)-N-methyl-2-phenyl-2,5-dihydro-1H-pyrrole-1-carboxamide]	≥ 4.30
CN(C(=O)N1CC(c2cc(F)ccc2F)=C[C@@]1(CO)c1ccccc1)[C@H]1CCNC[C@@H]1F [Compound 12-3, (2S)-4-(2,5-Difluorophenyl)-N-[(3S,4S)-3-fluoropiperidin-4-yl]-2-(hydroxymethyl)-N-methyl-2-phenyl-2,5-dihydro-1H-pyrrole-1-carboxamide]	≥ 4.30
CN(C(=O)N1CC(c2cc(F)ccc2F)=C[C@@]1(CO)c1ccccc1)[C@@H]1CCNC[C@@H]1F [Compound 12-1, (2S)-4-(2,5-Difluorophenyl)-N-[(3S,4R)-3-fluoropiperidin-4-yl]-2-(hydroxymethyl)-N-methyl-2-phenyl-2,5-dihydro-1H-pyrrole-1-carboxamide]	≥ 4.30
CN1CC[C@@H](N(C)C(=O)N2CC(c3cc(F)ccc3F)=C[C@H]2c2ccccc2)[C@H](F)C1 [Compound 7-3, (2S)-4-(2,5-Difluorophenyl)-N-[(3R,4R)-3-fluoro-1-methylpiperidin-4-yl]-N-methyl-2-phenyl-2,5-dihydro-1H-pyrrole-1-carboxamide]	≥ 4.30
CN(C(=O)N1CC(c2cc(F)ccc2F)=C[C@@]1(CO)c1ccccc1)[C@H]1CC[N+](C)([O-])C[C@H]1F (stereo partly drawn) [Compound 9-1, (2S)-4-(2,5-Difluorophenyl)-N-[(3R,4S)-3-fluoro-1-methyl-1-oxidopiperidin-4-yl]-2-(hydroxymethyl)-N-methyl-2-phenyl-2,5-dihydro-1H-pyrrole-1-carboxamide]	≥ 4.30

The next lines start with the values.

pIC50	SMILES
≥ 4.30	CN1CC[C@@H](N(C)C(=O)N2CC(c3cc(F)ccc3F)=C[C@@]2(CO)c2ccccc2)[C@H](F)C1 (single isomer, unassigned) [Compound 5-3]
≥ 4.30	CN(C(=O)N1CC(c2cc(F)ccc2F)=C[C@@]1(CO)c1ccccc1)[C@@H]1CCNC[C@H]1F [Compound 12-2, (2S)-4-(2,5-Difluorophenyl)-N-[(3R,4R)-3-fluoropiperidin-4-yl]-2-(hydroxymethyl)-N-methyl-2-phenyl-2,5-dihydro-1H-pyrrole-1-carboxamide]
≥ 4.30	CN1CC[C@H](N(C)C(=O)N2CC(c3cc(F)ccc3F)=C[C@@]2(CO)c2ccccc2)[C@H](F)C1 [Compound 3-1, (2S)-4-(2,5-Difluorophenyl)-N-[(3R,4S)-3-fluoro-1-methylpiperidin-4-yl]-2-(hydroxymethyl)-N-methyl-2-phenyl-2,5-dihydro-1H-pyrrole-1-carboxamide]
≥ 4.30	CN(C(=O)N1CC(c2cc(F)ccc2F)=C[C@@]1(CO)c1ccccc1)C1CCNCC1F (stereo in doubt) [Compound 10-2, (2S)-4-(2,5-Difluorophenyl)-N-[(3S,4R)-3-fluoropiperidin-4-yl]-2-(hydroxymethyl)-N-methyl-2-phenyl-2,5-dihydro-1H-pyrrole-1-carboxamide]
≥ 4.30	CN1CC[C@@H](N(C)C(=O)N2CC(c3cc(F)ccc3F)=C[C@@]2(CO)c2ccccc2)[C@@H](F)C1 [Compound 4-2, (2S)-4-(2,5-Difluorophenyl)-N-[(3S,4R)-3-fluoro-1-methylpiperidin-4-yl]-2-(hydroxymethyl)-N-methyl-2-phenyl-2,5-dihydro-1H-pyrrole-1-carboxamide]
